Here are results for 24 molecules from patent US20100331305A1, “OXO-HETEROCYCLE FUSED PYRIMIDINE COMPOUNDS, COMPOSITIONS AND METHODS OF USE” (Genentech, Inc., priority 2009, published 2010).

A word on the Ki: it is a dissociation constant, usually derived from enzyme kinetics or from competition with a known ligand. The EC50 is the concentration at which the effect is half-maximal. Lower therefore signals higher potency in that assay.

Assay [1] addresses mTOR enzyme (mTOR(1360-2549)+GBL) (Homo sapiens, UniProt P42345). Kind of assay: In vitro mTOR kinase assay (TR-FRET). The class given is biochemical. The conditions noted are these: 0.25 nM mTOR+GBL, 8 uM ATP; values tied to compounds by order of Table 1; 'x or y' = two alternative values for separated diastereomers of unassigned stereochemistry; read-out: activity level (Ki) in the mTOR kinase assay. An excerpt:
a. In Vitro mTOR Kinase Assay
The reaction is stopped by an addition of a Terbium-labeled phospho-specific antibody, e.g., Tb-labeled anti-p4E-BP1 T37/T46, (Invitrogen, product #PR8835A), EDTA, and TR-FRET buffer solution (Invitrogen, Product #PR3756B). Product formation is detected by way of time-resolved fluorescence resonance energy transfer (TR-FRET), which occurs when the phosphorylated substrate and labeled antibody are in close proximity due to phospho-specific binding. Enzymatic activity is measured as an increase in TR-FRET signal using a Perkin Elmer Envision plate reader.
Compound activity is tested in 10 point dose curves starting at the highest final concentration of 10 uM. They are serially diluted in 100% DMSO prior to further dilution with assay buffer. […] 8 μL of solution containing 2 nM Tb-anti-p4E-BP1 antibody & 10 mM EDTA diluted TR-FRET buffer is then added and incubated for 30 minutes to stop the reaction. The plate is scanned with the Envision plate reader. Ki values are calculated in Assay Explorer using the Morrison ATP-competitive tight binding equation for Ki apparent determination.
(TR-FRET usually uses a lanthanide donor and a delayed reading to cut background.)

The next assay concerns PC3 cells. Briefly: In vitro cell proliferation assay. To be noted: Homo sapiens, PC-3, with PC3 cells; values tied to compounds by order of Table 1. The assay is classed as cell-based, human. Here is the method: c. In Vitro Cell Proliferation Assay Efficacy of Formula I compounds were measured by a cell proliferation assay employing the following protocol: 1. An aliquot of 20 μl of cell culture containing about 10^3 cells (PC3 or MDAMB361.1) in medium was deposited in each well of a 384-well, opaque-walled plate. 2. Control wells were prepared containing medium and without cells; Cells were allowed to settle overnight. 3. The compound was added to the experimental wells and incubated for 3 days. 4. The plates were equilibrated to room temperature for approximately 30 minutes. 5. A volume of CellTiter-Glo Reagent equal to the volume of cell culture medium present in each well was added. […] The contents were mixed for 2 minutes on an orbital shaker to induce cell lysis. 7. The plate was incubated at room temperature for 20 minutes to stabilize the luminescence signal. 8. Luminescence was recorded and reported in graphs as RLU=relative luminescence units. Alternatively, cells were seeded at optimal density in a 96 well plate and incubated for 4 days in the presence of test compound. Alamar BlueTM was subsequently added to the assay medium, and cells were incubated for 6 h before reading at 544 nm excitation, 590 nm emission. EC50 values were calculated using a sigmoidal dose response curve fit.

Sequence of mTOR enzyme (mTOR(1360-2549)+GBL) (P42345 1360-2549, species assumed): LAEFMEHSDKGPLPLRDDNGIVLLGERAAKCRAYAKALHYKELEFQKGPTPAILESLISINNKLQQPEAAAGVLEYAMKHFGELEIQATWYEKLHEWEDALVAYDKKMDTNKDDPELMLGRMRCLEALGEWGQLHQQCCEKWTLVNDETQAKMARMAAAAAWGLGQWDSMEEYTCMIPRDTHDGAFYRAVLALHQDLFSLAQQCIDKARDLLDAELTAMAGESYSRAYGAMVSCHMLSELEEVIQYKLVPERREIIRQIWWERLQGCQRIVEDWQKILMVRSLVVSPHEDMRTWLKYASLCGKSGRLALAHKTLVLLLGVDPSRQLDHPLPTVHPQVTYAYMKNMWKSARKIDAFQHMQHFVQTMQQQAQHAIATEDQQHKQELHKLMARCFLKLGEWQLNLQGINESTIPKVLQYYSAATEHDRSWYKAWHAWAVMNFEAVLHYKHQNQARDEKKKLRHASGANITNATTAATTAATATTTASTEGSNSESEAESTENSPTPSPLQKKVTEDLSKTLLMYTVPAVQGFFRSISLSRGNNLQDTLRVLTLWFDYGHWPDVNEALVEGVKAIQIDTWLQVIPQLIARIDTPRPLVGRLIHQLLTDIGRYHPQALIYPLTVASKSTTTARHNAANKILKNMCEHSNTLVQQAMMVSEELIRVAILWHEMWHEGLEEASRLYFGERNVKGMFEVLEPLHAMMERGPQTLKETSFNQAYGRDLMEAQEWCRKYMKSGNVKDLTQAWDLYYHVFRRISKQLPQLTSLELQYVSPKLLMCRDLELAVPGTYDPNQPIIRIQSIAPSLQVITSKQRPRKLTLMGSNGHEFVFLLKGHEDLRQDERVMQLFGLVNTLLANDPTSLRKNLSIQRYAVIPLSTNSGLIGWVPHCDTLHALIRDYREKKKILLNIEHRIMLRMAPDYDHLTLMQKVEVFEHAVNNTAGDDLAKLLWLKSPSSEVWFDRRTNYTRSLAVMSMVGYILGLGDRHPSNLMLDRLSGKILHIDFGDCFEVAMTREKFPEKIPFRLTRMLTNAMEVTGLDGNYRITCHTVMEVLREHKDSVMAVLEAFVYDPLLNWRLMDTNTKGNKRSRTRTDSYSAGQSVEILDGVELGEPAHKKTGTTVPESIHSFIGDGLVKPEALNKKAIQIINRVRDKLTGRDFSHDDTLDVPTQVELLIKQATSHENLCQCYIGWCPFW
Sequence of mTOR enzyme (mTOR(1360-2549)+GBL) (Q9BVC4 whole entry partner, species assumed): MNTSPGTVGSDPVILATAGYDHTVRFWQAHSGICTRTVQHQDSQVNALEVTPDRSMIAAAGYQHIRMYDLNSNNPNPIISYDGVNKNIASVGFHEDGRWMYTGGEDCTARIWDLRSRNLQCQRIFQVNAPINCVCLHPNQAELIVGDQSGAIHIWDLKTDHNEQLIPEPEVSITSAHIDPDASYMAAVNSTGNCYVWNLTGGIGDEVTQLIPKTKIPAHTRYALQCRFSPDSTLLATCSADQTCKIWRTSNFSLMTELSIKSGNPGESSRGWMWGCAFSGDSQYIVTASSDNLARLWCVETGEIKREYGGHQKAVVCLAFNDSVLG

Take `C[C@H]1COCCN1c1nc(-c2ccc(Nc3nccc(=O)[nH]3)cc2)nc2c1COCC2` [Example 28, (S)-2-(4-(4-(3-methylmorpholino)-7,8-dihydro-5H-pyrano[4,3-d]pyrimidin-2-yl)phenylamino)pyrimidin-4(3H)-one]: the inhibition constant (Ki) in assay [1] came out at 2 nM. In the assay with PC3 cells, this molecule yielded an EC50 of 194 nM.

For `CC[C@H]1COCCN1c1nc(-c2ccc(Nc3nccc(=O)[nH]3)cc2)nc2c1COCC2` [Example 4, (S)-2-(4-(4-(3-ethylmorpholino)-7,8-dihydro-5H-pyrano[4,3-d]pyrimidin-2-yl)phenylamino)pyrimidin-4(3H)-one], the Ki in assay [1] came out at 1 nM. Moreover, the concentration for a half-maximal effect (EC50) with PC3 cells was 30 nM.

For the molecule `Cc1nnc(NC(=O)Nc2ccc(-c3nc4c(c(N5CCOC[C@@H]5C)n3)COCC4)cc2)o1` [Example 27, (S)-1-(5-methyl-1,3,4-oxadiazol-2-yl)-3-(4-(4-(3-methylmorpholino)-7,8-dihydro-5H-pyrano[4,3-d]pyrimidin-2-yl)phenyl)urea], the Ki in assay [1] stood at 26 nM. For the same molecule, the half-maximal effective concentration (EC50) in the assay with PC3 cells came out at 313 nM.

For `O=C(Nc1ccc(-c2nc3c(c(N4[C@@H]5CC[C@H]4COC5)n2)CCCO3)cc1)NC1COC1` [1-(4-(4-((1R,5S)-3-oxa-8-azabicyclo[3.2.1]octan-8-yl)-6,7-dihydro-5H-pyrano[2,3-d]pyrimidin-2-yl)phenyl)-3-(oxetan-3-yl)urea], in assay [1], the inhibition constant Ki came out at 5 nM. In the assay on PC3 cells, a half-maximal response (EC50) required 238 nM.

As for `C[C@H]1COCCN1c1nc(-c2cnc(N)nc2)nc2c1CO[C@@]2(C)CCOc1ccccc1` [Example 104 gs (S), 5-((S)-7-methyl-4-((S)-3-methylmorpholino)-7-(2-phenoxyethyl)-5,7-dihydrofuro[3,4-d]pyrimidin-2-yl)pyrimidin-2-amine], the Ki in assay [1] was determined as 231 nM. The EC50 in the assay with PC3 cells was 145 nM.

In the case of `C[C@H]1COCCN1c1nc(-c2cnc(N)nc2)nc2c1COC2(C)C` [Example 103, (S)-5-(7,7-dimethyl-4-(3-methylmorpholino)-5,7-dihydrofuro[3,4-d]pyrimidin-2-yl)pyrimidin-2-amine], the Ki in assay [1] was 15 nM. In addition, in the assay on PC3 cells, the EC50 is 41 nM.

For the molecule `CC1(C)OCc2c(N3CCOCC3)nc(-c3ccc4c(N)noc4c3)nc21` [Example 116, 6-(7,7-dimethyl-4-morpholino-5,7-dihydrofuro[3,4-d]pyrimidin-2-yl)benzo[d]isoxazol-3-amine], the Ki in assay [1] came to 17 nM. This molecule gave an EC50 with PC3 cells of 2100 nM.

`CONC(=O)Nc1ccc(-c2nc3c(c(N4CCOC[C@@H]4C)n2)CCC2(CC2)O3)cc1` [Example 67, (S)-1-methoxy-3-(4-(4′-(3-methylmorpholino)-5′,6′-dihydrospiro[cyclopropane-1,7′-pyrano[2,3-d]pyrimidine]-2′-yl)phenyl)urea]: in assay [1], the Ki was found to be 10 nM. The molecule further showed a 50% effective concentration (EC50) in the assay on PC3 cells of 853 nM.

Take `C[C@H]1COCCN1c1nc(-c2ccc(NC(=O)NC3COC3)cc2)nc2c1COCC2` [Example 25, (S)-1-(4-(4-(3-methylmorpholino)-7,8-dihydro-5H-pyrano[4,3-d]pyrimidin-2-yl)phenyl)-3-(oxetan-3-yl)urea]: in assay [1], the inhibitory constant (Ki) worked out at 13 nM. The EC50 in the assay on PC3 cells amounted to 1500 nM.

With `C[C@H]1COCCN1c1nc(-c2ccc(NC(=O)Nc3ccn(C)n3)cc2)nc2c1CCCO2` [Example 30, (S)-1-(1-methyl-1H-pyrazol-3-yl)-3-(4-(4-(3-methylmorpholino)-6,7-dihydro-5H-pyrano[2,3-d]pyrimidin-2-yl)phenyl)urea], the Ki in assay [1] came to 1 nM. In the assay on PC3 cells, the response was half-maximal at 172 nM (EC50).

In the case of `CCNC(=O)Nc1ccc(-c2nc(N3CCOC[C@@H]3C)c3c(n2)[C@](C)(CCN2CCOCC2)OC3)cc1` [Example 76 eo (S), 1-ethyl-3-(4-((S)-7-methyl-4-((S)-3-methylmorpholino)-7-(2-morpholinoethyl)-5,7-dihydrofuro[3,4-d]pyrimidin-2-yl)phenyl)urea], the Ki in assay [1] was found to be 293 nM. This molecule also showed a half-maximal effective concentration (EC50) with PC3 cells of 45 nM.

Turning to `O=c1ccnc(Nc2ccc(-c3nc4c(c(N5CCOCC5)n3)CCC3(CC3)O4)cc2)[nH]1` [Example 42, 2-(4-(4′-morpholino-5′,6′-dihydrospiro[cyclopropane-1,7′-pyrano[2,3-d]pyrimidine]-2′-yl)phenylamino)pyrimidin-4(3H)-one], in assay [1], the Ki amounted to 1 nM. In the assay on PC3 cells, this molecule showed an EC50 of 56 nM.

With `CC1(C)OCc2c(N3CCOCC3)nc(-c3ccc4nc(N)oc4c3)nc21` [Example 115, 6-(7,7-dimethyl-4-morpholino-5,7-dihydrofuro[3,4-d]pyrimidin-2-yl)benzo[d]oxazol-2-amine], the Ki in assay [1] came out at 269 nM. In addition, in the assay with PC3 cells, a half-maximal response (EC50) required 146 nM.

Molecule `CCNC(=O)Nc1ccc(-c2nc(N3CCOC[C@@H]3C)c3c(n2)[C@](C)(CCOc2ccncc2)OC3)cc1` [Example 92 fu^1] came in with an EC50 in the assay on PC3 cells of 238 nM.

Regarding `C=CC[C@@]1(C)OCc2c(N3C[C@H]4CC[C@@H](C3)O4)nc(-c3ccc(NC(=O)NCC)cc3)nc21` [Example 74 eh (R), 1-(4-((R)-7-allyl-4-((1R,5S)-8-oxa-3-azabicyclo[3.2.1]octan-3-yl)-7-methyl-5,7-dihydrofuro[3,4-d]pyrimidin-2-yl)phenyl)-3-ethylurea], in the assay with PC3 cells, the concentration for a half-maximal effect (EC50) was 95 nM.

As to `CCNC(=O)Nc1ccc(-c2nc(N3CCOCC3C)c3c(n2)C(C)(CCOc2ccccc2)OC3)cc1` (stereo not shown) [Example 91 ft^1, 1-ethyl-3-(4-(7-methyl-4-(3-methylmorpholino)-7-(2-phenoxyethyl)-5,7-dihydrofuro[3,4-d]pyrimidin-2-yl)phenyl)urea], in the assay on PC3 cells, the EC50 was determined as 297 nM.

The molecule `C=CC[C@]1(C)OCc2c(N3C[C@H]4CC[C@@H](C3)O4)nc(-c3ccc(NC(=O)NCC)cc3)nc21` [Example 74 eh (S), 1-(4-((S)-7-allyl-4-((1R,5S)-8-oxa-3-azabicyclo[3.2.1]octan-3-yl)-7-methyl-5,7-dihydrofuro[3,4-d]pyrimidin-2-yl)phenyl)-3-ethylurea] came in with a concentration for a half-maximal effect (EC50) in the assay on PC3 cells of 153 nM.

`CCNC(=O)Nc1ccc(-c2nc(N3CCOC[C@@H]3C)c3c(n2)[C@@](C)(CCCO)OC3)cc1` [Example 75 el (R), 1-ethyl-3-(4-((R)-7-(3-hydroxypropyl)-7-methyl-4-((S)-3-methylmorpholino)-5,7-dihydrofuro[3,4-d]pyrimidin-2-yl)phenyl)urea]: in the assay on PC3 cells, the EC50 was 322 nM.

`CC[C@H]1COCCN1c1nc(-c2ccc(NC(=O)NC3COC3)cc2)nc2c1COCC2` [Example 6, (S)-1-(4-(4-(3-ethylmorpholino)-7,8-dihydro-5H-pyrano[4,3-d]pyrimidin-2-yl)phenyl)-3-(oxetan-3-yl)urea] registered an EC50 with PC3 cells of 180 nM.

For the molecule `CCC[C@]1(C)OCc2c(N3C[C@H]4CC[C@@H](C3)O4)nc(-c3ccc(NC(=O)NCC)cc3)nc21` [Example 74 ej (S), 1-(4-((S)-4-((1R,5S)-8-oxa-3-azabicyclo[3.2.1]octan-3-yl)-7-methyl-7-propyl-5,7-dihydrofuro[3,4-d]pyrimidin-2-yl)phenyl)-3-ethylurea], the concentration for a half-maximal effect (EC50) with PC3 cells was 51 nM.

In the assay with PC3 cells, `CCNC(=O)Nc1ccc(-c2nc3c(c(N4C[C@H]5CC[C@@H](C4)O5)n2)COC3)cc1` [Example 99, 1-(4-(4-(8-oxa-3-azabicyclo[3.2.1]octan-3-yl)-5,7-dihydrofuro[3,4-d]pyrimidin-2-yl)phenyl)-3-ethylurea] showed a 50% effective concentration (EC50) of 154 nM.

Turning to `C=CC[C@@]1(C)OCc2c(N3CCOCC3)nc(-c3ccc(NC(=O)NCC)cc3)nc21` [Example 73 eb (R), (R)-1-(4-(7-allyl-7-methyl-4-morpholino-5,7-dihydrofuro[3,4-d]pyrimidin-2-yl)phenyl)-3-ethylurea], it took 96.1 nM to reach a half-maximal effect in the assay with PC3 cells (EC50).

In the assay with PC3 cells, `CCNC(=O)Nc1ccc(-c2nc(N3CCOC[C@@H]3C)c3c(n2)[C@](C)(CCCO)OC3)cc1` [Example 75 el (S), 1-ethyl-3-(4-((S)-7-(3-hydroxypropyl)-7-methyl-4-((S)-3-methylmorpholino)-5,7-dihydrofuro[3,4-d]pyrimidin-2-yl)phenyl)urea] had an EC50 of 62 nM.

For the molecule `CCC[C@@]1(C)OCc2c(N3C[C@H]4CC[C@@H](C3)O4)nc(-c3ccc(NC(=O)NCC)cc3)nc21` [Example 74 ej (R), 1-(4-((R)-4-((1R,5S)-8-oxa-3-azabicyclo[3.2.1]octan-3-yl)-7-methyl-7-propyl-5,7-dihydrofuro[3,4-d]pyrimidin-2-yl)phenyl)-3-ethylurea], in the assay on PC3 cells, the response was half-maximal at 19 nM (EC50).
